{"source": "patent US11096985B2", "about": "“Antimicrobial peptides, their variants and uses” (priority 2015, dated 2021)", "key": {"[1]": {"test_system": "clinical strains of C. parapsilosis", "assay": "MIC, clinical yeast strains, C. parapsilosis", "format": "cell-based, Candida parapsilosis", "parameters": "unit: μg/ml", "procedure": "(§1) Minimum inhibition concentrations (MICs) were determined against Escherichia coli (ATCC 25922), Staphylococcus aureus (ATCC 25923), Klebsiella pneumoniae (ATCC 10031) and Pseudomonas aeruginosa (ATCC 27853). Also clinical strains of E. coli, K. pneumoniae, E. cloacae, P. aeruginosa, Serratia marcescens, Proteus mirabilis, S. pneumoniae, Acinetobacter baumannii, A. johnsonii and S. aureus were used for MICs assays. Additionally, clinical strains of yeast including Candida albicans, C. glabrata, C. parapsilosis and C. quillermondiae were used. The susceptibility of these microorganisms to Chain peptides were determined using micro broth dilution assay. Colonies of the respective microorganism from Muller Hinton (MH) agar plates incubated overnight were suspended in MH broth media and final concentration of microorganism was adjusted to 5.0×10^5 cfu/ml. An aliquot of 10 μl of each Chain peptide, or gentamicin, tetracycline as reference antibiotics were added in differing concentrations along with 90 μl of bacterial suspension to 96 well polypropylene plates and incubated at 37° C. for 20 to 24 hours. Concentrations of Chain peptides and reference antibiotics ranged from 0.125 to 128 μg/ml and the MICs were recorded as the lowest concentration with no visual growth of bacteria. Similarly, antifungal MICs were tested in Potato dextrose broth.\n(§2) Clinical strains of yeasts including Candida albicans, C. glabrata, C. parapsilosis and C. quillermondiae were also tested with the 12 Chain peptides. The minimum inhibitory concentration (MICs) varied between these peptides and are presented in Tables 4a, 4b, 4c and 5a, 5b, 5c. Peptides Chain 105, 201 and 308 are broad spectrum antimicrobials with MICs between 0.5-32 μg/ml against all the bacteria and yeasts tested, except Serratia marcescens and Proteus mirabilis, against which the MICs were between 64-128 μg/ml. Peptide Chain 306 has narrow spectrum activity against E.coli at 1 μg/ml and for the rest of the bacterial strains at >32 μg/ml (FIG. 10)."}, "[2]": {"test_system": "clinical strains of C. glabrata", "assay": "MIC, clinical yeast strains, C. glabrata", "format": "cell-based, Candida glabrata", "parameters": "unit: μg/ml", "procedure": "as §1, §2"}, "[3]": {"test_system": "clinical strains of Acinetobacter johnsonii", "format": "cell-based", "procedure": "as §1, §2"}, "[4]": {"test_system": "clinical strains of C. quillermondiae", "assay": "MIC, clinical yeast strains, C. quillermondiae", "format": "cell-based", "settings": "C. quillermondiae clinical yeast strain 1", "procedure": "as §1, §2"}, "[5]": {"test_system": "clinical strains of Candida albicans", "assay": "MIC, clinical yeast strains, Candida albicans", "format": "cell-based", "parameters": "unit: μg/ml", "procedure": "as §1, §2"}, "[6]": {"test_system": "gram positive and negative bacteria", "assay": "MIC by micro broth dilution, summary over the strains tested", "format": "cell-based", "procedure": "as §1"}, "S. aureus COL (MRSA)": {"test_system": "S. aureus COL (MRSA)", "assay": "Synergistic activity with Ertapenem (4 μg/ml) against MRSA, MIC", "format": "cell-based, Staphylococcus aureus", "settings": "Ertapenem 4 μg/ml; L-form", "procedure": "as §1\nPeptides Chain 104, Chain 105, Chain 201, Chain 308, Chain 310 were tested against antibiotic-sensitive strains of S. aureus RN4220 and methicillin resistant strains of S. aureus COL (MRSA). Chain peptides comprising of either L- or D-form amino acids were tested against these bacteria, and the D-form peptides were found have better activity compared to L-form (Table 6). Synergistic activity of chain peptides along with Ertapenem (4 μg/ml) was tested to know whether it will influence the activity against MRSA strains. […] Chain 310 has the best antibacterial activity against the MRSA strains with a MIC of 0.06 & 0.03 μg/ml along with Ertapenem (4 μg/ml) for both forms of L and D-peptides (Table 6)."}, "[7]": {"test_system": "Aspergillus flavus (DSM 1959)", "assay": "Radial diffusion assay, antifungal, A. flavus", "format": "cell-based", "settings": "20 μg", "procedure": "(§3) The radial diffusion assay (RDA) was carried out as described by Andersen et al. (2010). Briefly, 30 ml of 1/10 Muller-Hinton broth (MHB) supplemented with 1% agarose and 5.0×10^5 CFU/ml S. aureus or E. coli or K. pneumoniae, P. aeruginosa cells was poured into a single-well omnitray (Nunc) and overlaid with a TSP 96-well plate. One hundred μg of each synthesized peptide was tested. The peptides were also tested against Fusarium oxysporum and Verticillium dahliae, for which 1/3 potato dextrose agarose was used. To test the synergistic effect of peptides, each peptide was mixed in equimolar concentrations. Mix1 (met1-12), Mix2 (met3, 4 and 5), Mix3 (met 8, 9 and 10), Mix 4 (met11, 12) and Mix5 (8, 9, 10, 11, 12) were prepared and tested against E. coli and S. aureus. Gentamicin and vancomycin were included as positive controls for bacteria and amphotericin B was used as the control for fungi.\n(§4) By using rational design techniques, we have designed variants of peptides by incorporating or replacing various amino acids in the original peptides. Thus, we have designed and modified Chain 100, Chain 200 and Chain 300 with tryptophan (W), arginine (R) and lysine (K) at various positions to improve antimicrobial activity (FIGS. 4a-c and 5a-c). In some peptides we have also used other amino acids such as Leucine (L), Cysteine (C), Isoleucine (I), Phenylalanine (F) and Alanine (A). For synthesis, 32 variants and 3 original peptides were selected based on the various parameters such as positive charge, aliphatic index and instability index. Peptides variants were tested by using radial diffusion assay against Escherichia coli (ATCC 25922), Staphylococcus aureus (ATCC 25923), Klebsiella pneumoniae (ATCC 10031) and Pseudomonas aeruginosa (ATCC 27853) (FIGS. 6a-c). The zone of inhibition ranged between 10-18 mm for Escherichia coli and Staphylococcus aureus, 6-18 mm & 8-18 mm for Pseudomonas aeruginosa and Klebsiella pneumonia respectively (Table 2). For Gentamicin it was between 22-24 mm. Antifungal activity was tested for promising antibacterial peptides (Chains 104, 105, 109, 201, 204, 306, 307, 308, 310) against Aspergillus flavus (DSM 1959) and Penicillium chrysogenum (DSM 1075). All these peptides has activity at a concentration of 20 μg, Amphotericin B was used as a positive control at 20 μg (FIG. 7)."}, "human erythrocytes": {"test_system": "human erythrocytes", "format": "cell-based", "procedure": "In hemolysis assays, the ability of peptides at 128 μg/ml concentration to lyse human erythrocytes to release hemoglobin was measured. The peptides described here preferably have low hemolytic activity (0.2 to 3.8% hemolysis) in mammal body. […] These peptides are useful as antimicrobial drugs as they show little or no side effects at concentrations needed to kill bacteria.\nMinimum inhibition concentrations (MICs) were tested by microbroth dilution method and Chain 104, 105 and 109 inhibited the growth of Escherichia coli (ATCC 25922), Staphylococcus aureus (ATCC 25923), Klebsiella pneumoniae (ATCC 10031) and Pseudomonas aeruginosa (ATCC 27853) between 1-8 μg/ml respectively (Tables 3a, 3b and 3c). The membranolytic activities of the peptides were tested by measuring the release of hemoglobin from erythrocytes of fresh blood donated by voluntiers. Hemoglobin levels were determined spectrometrically by taking OD at 540 nm by following the protocol of Schmidtchen et al., 2011."}, "[8]": {"test_system": "Penicillium chrysogenum (DSM 1075)", "assay": "Radial diffusion assay, antifungal, P. chrysogenum", "format": "cell-based", "settings": "20 μg", "procedure": "as §3, §4"}, "S. aureus": {"test_system": "S. aureus", "assay": "Antibacterial activity analysis of En-MAP1 protein", "format": "cell-based, Staphylococcus aureus", "procedure": "Both folded and unfolded proteins were tested for antibacterial activity against S. aureus by pipetting 10 μg of protein on the S. aureus culture on an LB plate. The activity was also tested in folded and unfolded protein digested with trypsin in 0.01% acetic acid at concentrations of 30 and 60 μg/ml."}}, "note": "Entries after “also recorded” stand apart in the source; their conditions may differ. Where a SMILES comes first, the peptide text is derived from it. [ ]: non-standard residue; d: D form."}
{"molecule": "CC[C@@H](C)[C@@H](NC(=O)[C@@H](CCSC)NC(=O)[C@@H](C)NC(=O)[C@@H](CCCNC(=N)N)NC(=O)[C@@H](Cc1c[nH]c2ccccc12)NC(=O)[C@@H](CCCCN)NC(=O)[C@H](N)CCCNC(=N)N)C(=O)N[C@H](CCCNC(=N)N)C(=O)N[C@H](CC(C)C)C(=O)N[C@H](Cc1c[nH]cn1)C(=O)N[C@H](C)C(=O)N[C@H](CCCCN)C(=O)N[C@H](CCCNC(=N)N)C(=O)N[C@H](CC(C)C)C(=O)N[C@H](CCCNC(=N)N)C(=O)N[C@H](CCCCN)C(=O)O", "note": "[Chain104D] (H-[dR][dK][dW][dR][dA][dM][dI][dR][dL][dH][dA][dK][dR][dL][dR][dK]-OH)", "values": [{"measurement": "Minimum inhibitory concentration", "setting": "[1]; C. parapsilosis clinical yeast strain 1", "value": 4}, {"measurement": "Minimum inhibitory concentration", "setting": "[1]; C. parapsilosis clinical yeast strain 2", "value": 4}, {"measurement": "Minimum inhibitory concentration", "setting": "[1]; C. parapsilosis clinical yeast strain 3", "value": 4}, {"measurement": "Minimum inhibitory concentration", "setting": "[1]; C. parapsilosis clinical yeast strain 4", "value": 2}, {"measurement": "Minimum inhibitory concentration", "setting": "[2]; C. glabrata clinical yeast strain 1", "value": 8}, {"measurement": "Minimum inhibitory concentration", "setting": "[2]; C. glabrata clinical yeast strain 2", "value": 8}, {"measurement": "Minimum inhibitory concentration", "setting": "[2]; C. glabrata clinical yeast strain 3", "value": 8}, {"measurement": "Minimum inhibitory concentration", "setting": "[2]; C. glabrata clinical yeast strain 4", "value": 16}, {"measurement": "Minimum inhibitory concentration, Acinetobacter johnsonii strain 1", "setting": "[3]", "value": 8, "unit": "µg/mL"}, {"measurement": "Minimum inhibitory concentration", "setting": "[4]", "value": 4}, {"measurement": "Minimum inhibitory concentration", "setting": "[5]; Candida albicans clinical yeast strain 1", "value": 8}, {"measurement": "Minimum inhibitory concentration", "setting": "[5]; Candida albicans clinical yeast strain 2", "value": 8}, {"measurement": "Minimum inhibitory concentration", "setting": "[5]; Candida albicans clinical yeast strain 3", "value": 8}, {"measurement": "Minimum inhibitory concentration", "setting": "[5]; Candida albicans clinical yeast strain 4", "value": 8}, {"measurement": "Minimum inhibitory concentration", "setting": "[5]; Candida albicans clinical yeast strain 5", "value": 8}]}
{"molecule": "CC(C)C[C@H](NC(=O)[C@H](CCCCN)NC(=O)[C@H](CCCCN)NC(=O)[C@H](Cc1ccccc1)NC(=O)[C@H](CC(C)C)NC(=O)[C@H](Cc1c[nH]c2ccccc12)NC(=O)[C@H](CCCNC(=N)N)NC(=O)[C@H](Cc1c[nH]c2ccccc12)NC(=O)[C@H](CCCCN)NC(=O)[C@H](CCCNC(=N)N)NC(=O)[C@@H](N)CCCCN)C(=O)O", "note": "[Chain310] (H-KRKWRWLFKKL-OH; N-terminus and C-terminus assumed)", "values": [{"measurement": "activity against the four ATCC strains", "setting": "[6]", "value": "very active"}, {"measurement": "MIC against MRSA strains along with Ertapenem, L-peptide", "setting": "S. aureus COL (MRSA)", "value": 0.06, "unit": "µg/mL"}, {"measurement": "antifungal activity against Aspergillus flavus", "setting": "[7]", "value": "has activity; also recorded: particularly active"}, {"measurement": "side effects to humans as tested by hemolysis assay", "setting": "human erythrocytes", "value": "little side effects"}, {"measurement": "antifungal activity against Penicillium chrysogenum", "setting": "[8]", "value": "has activity; also recorded: particularly active"}]}
{"molecule": "CC(C)C[C@H](NC(=O)[C@H](Cc1c[nH]c2ccccc12)NC(=O)[C@H](Cc1ccccc1)NC(=O)[C@H](Cc1c[nH]c2ccccc12)NC(=O)[C@H](CCCCN)NC(=O)[C@H](CC(C)C)NC(=O)[C@@H](N)CCCNC(=N)N)C(=O)N[C@@H](Cc1ccccc1)C(=O)N[C@@H](CCCNC(=N)N)C(=O)N[C@@H](CCCCN)C(=O)N[C@@H](CCCNC(=N)N)C(=O)O", "note": "[Chain307] (H-RLKWFWLFRKR-OH; N-terminus and C-terminus assumed)", "values": [{"measurement": "activity against the four ATCC strains", "setting": "[6]", "value": "very active"}, {"measurement": "antifungal activity against Aspergillus flavus", "setting": "[7]", "value": "has activity; also recorded: particularly active"}, {"measurement": "side effects to humans as tested by hemolysis assay", "setting": "human erythrocytes", "value": "little side effects"}, {"measurement": "antifungal activity against Penicillium chrysogenum", "setting": "[8]", "value": "has activity; also recorded: particularly active"}]}
{"molecule": "En-MAP1: protein of 549 amino acids from an endophyte of Empetrum nigrum, GenBank KC466596 (protein, listed as Empetrum nigrum) MRLVAHPVPDAPLYALMIKACSMGIPQPNDNLWKPRNPLLAKEEKTSKRGRTAPDTERALDLFREMTLRYNIRPTAEVYTAIIAACVKRDDMYDKGFGLFKKMVELERNRMSSEGHDSTSFAPTRATYNALLRGCARNKDLLRARWILAEMLRTAQAKWQEFMEKSKKGEEGVQEWELLEVEEMRPDTNTMAFLFYTYASHTTSSKAVPETEGKKELEGKAEERASEVTSVSPVSEPPEPMDESKLVYSLPTSSQAILREVTSLLDRIKSDQGQQSNLLSSVQINSKLLNSYIAVLSAHCRSSQVVERISEVVVGTKENPKSLFEETGTSVNGYTCFTVIDACGMMEHSPDTYHLACEMWQRWLSLVENATFHRENPLKAKEIGLDSRTISDCWSAMIRLHAKYNQVDEAMKLVHEFARLYPPASLFNSLTFEPSSTSSSSLSPRKGVQEISPLFSSTSLTHSIRGRDISRIQNTMSQDPTLQFRAVQILHLRLVELETRPKDLAYLSWLLKSYEHQLQPKRPKSLQGDLFTSRQAAYNRIVQQRTSSR", "values": [{"measurement": "antibacterial activity against S. aureus, trypsin digest of folded protein", "setting": "S. aureus; folded full protein digested with trypsin", "value": "antibacterial activity was observed for up to two hours after digestion"}, {"measurement": "antibacterial activity against S. aureus", "setting": "S. aureus; folded protein or expressed fragments", "value": "no activity was observed"}, {"measurement": "antibacterial activity against S. aureus, trypsin digest of unfolded protein", "setting": "S. aureus; unfolded protein digested with trypsin", "value": "No activity was detected"}]}
